Entries after “also recorded” stand apart in the source; their conditions may differ.
Tests used:
[1] = Example 12: physical characteristics and freezing points of solvents and solvent combinations; format: physicochemical; conditions: vehicle alone
Procedure: The physical characteristics of various individual solvents and solvent combinations were determined.

[2] = Example 5: diffusion of 14C-zeta-cypermethrin on sheep skin in a variety of carriers; format: in vivo; conditions: 1 mL/5 kg on backline of sheep; for spread of zeta-cypermethrin from the backline (in words): carrier with 10 mg/mL 14C-spiked zeta-cypermethrin, wool at 2, 7.5, 15 cm meridians up to day 14
Procedure: This study compared the amount and rate of diffusion of ^14C-labelled zeta-cypermethrin from the dorsal midline of sheep, when applied in wool grease, in an aqueous formulation and in a range of test carriers.
Each formulation was applied to the backline of three sheep at 1 mL/5 kg body weight. Wool was collected from three 12×12-mm squares chosen at random, along meridian lines drawn 2, 7.5 and 15 cm down the side of each sheep from the backline. The wool samples were collected at 1, 2, 4, 8, 11 and 14 days after treatment, and each day's samples were pooled. The clipped areas were also swabbed. At day 14 after treatment, the wool at the site of application was collected and back and perirenal fat samples were collected. The quantity of zeta-cypermethrin in each sample was measured by liquid scintillation counting.

[3] = tested on: Bovicola ovis; assay: Example 3: spinosad in a variety of carriers as pour-on, lice control on sheep housed indoors; format: in vivo; conditions: carrier containing spinosad, 0.4 mg/kg, 1 mL/5 kg
Procedure: The aim of this study was to select the most efficacious of a range of eight formulations that were selected on the basis of safety, physical properties, efficacy, cost and theories of dermal insecticide spread.
Each formulation was prepared to provide spinosad at a dose of 0.4 mg/kg and applied at a rate of 1 mL/5 kg of body weight.

[4] = tested on: Merino sheep skin; assay: Pour-on carrier/vehicle sheep skin irritation studies (histological scoring); format: in vivo; conditions: for Mean skin irritation scores: 1 mL applied to skin of recently shorn Merino sheep, histological score 0-15 (0 no change, 15 very severe damage; normal 2-4, >4 abnormal, >7 very abnormal); for skin irritancy / histological dermatitis (in words): applied to skin of recently shorn Merino sheep, histology
Procedure: Studies were conducted to investigate and characterise the changes occurring in Merino sheep skin following the application of a range of candidate pour-on formulation components in order to discern safe carriers. Chemicals, emollients, wool grease derivatives and a wide range of formulations were applied (in 1 mL volumes) to each of 18 sites on the back and flanks of 15 recently shorn Merino sheep.
In the first study, skin samples were collected at necropsy 3½weeks after application. In subsequent studies, skin samples were collected 2 weeks after application. Standard haematoxylin and eosin stained sections were prepared from each piece of treated skin. A histological scoring system was devised to allow comparison of treatments. Each skin was assessed for the degree of hyperkeratosis, acanthosis and inflammatory cell infiltrate of the superficial dermis and given a rating score from 0–15. A score of 0=no change through to a score of 15 for very severe damage. Normal skin scored 2–4, >4 was abnormal and >7 was very abnormal. Treatments yielding a score ? 4.5 were considered safe. […]

[5] = tested on: Bovicola ovis (highly synthetic pyrethroid (SP) resistant, Hartley strain of lice); assay: Example 2: wool grease formulations and IPM with zeta-cypermethrin and spinosad, lice control on sheep; format: in vivo; conditions: for efficacy at eight weeks: 2 mL/10 kg
Text: The purposes of this study were to evaluate wool grease as a formulation to deliver spinosad, to determine the dose required to kill 100% of lice in sheep and to evaluate the suitability of the formulation to deliver zeta-cypermethrin, compared with an isopropyl myristate (IPM) formulation.
Sheep were heavily infested with the highly synthetic pyrethroid (SP) resistant, Hartley strain of lice. Sheep were shorn, lice counted and sheep allocated to ten groups of six sheep, each divided into three groups of two per treatment. All sheep were treated at the rate of 2 mL of test formulation/10 kg of body weight. Treatments were, respectively: wool grease only; 2 mg/kg deltamethrin and 4 mg/kg alphacypermethrin in commercial formulations; spinosad in wool grease at 0.08 mg/kg, 0.4 mg/kg, 2 mg/kg and 10 mg/kg; zeta-cypermethrin in wool grease at 0.66 mg/kg and 2 mg/kg; and spinosad in IPM at 0.4 mg/kg. Lice numbers were counted weekly for eight weeks.

[6] = tested on: Bovicola ovis; assay: Example 4: therapeutic efficacy and dose titration of spinosad pour-on, sheep housed outdoors; format: in vivo; conditions: 1 mL/5 kg
Procedure: This study was carried out to select the dose of spinosad required to eradicate sheep body lice when applied as a pour-on in OP/IPM/OSU (70:15:15) containing 5% oleic acid, and to compare the efficacy of spinosad at 0.4 mg/kg in a suspension concentrate (SC) formulation applied as a pour-on with that of the pour-on organic solvent formulation. The spinosad formulations were applied at 1 mL/5 kg and at 0, 0.2, 0.4, 0.8, 1.6 and 3.2 mg/kg to 6 groups of 6 recently shorn sheep that were housed outdoors for 6 weeks.

[7] = tested on: Bovicola ovis (Hartley, Claremont, susceptible and slightly resistant strains); assay: Example 6: zeta-cypermethrin in a variety of carriers, lice control on sheep; format: in vivo; conditions: for lice control, susceptible strain (in words): sheep infested with SP-susceptible strain
Procedure: These studies were devised to determine the efficacy of zeta-cypermethrin (at 2 mg/kg of body weight) in several nonaqueous formulations, and a commercial formulation of deltamethrin, on sheep infested with a severely synthetic pyrethroid (SP) resistant (Hartley) strain and a moderately SP resistant (Claremont) strain of Bovicola ovis. Some additional studies were undertaken with susceptible and slightly resistant lice to determine whether zeta-cypermethrin was able to kill lice under optimum conditions.

[8] = 2 mg/kg (deltamethrin in commercial formulation; zeta-cypermethrin in wool grease)

Q: For CCCCCCCCCCCCCC(=O)OC(C)C [IPM, isopropyl myristate], which freezing point [1] is on record?
A: Its freezing point is −2 to −6 °C.

Q: And the “spread of zeta-cypermethrin from the backline (in words)” value [2]?
A: Its value is “greatest spread; also recorded: best spread”.

Q: And the “skin reaction at the site of application” value ([2]; carrier with 10 mg/mL zeta-cypermethrin)?
A: Its value is “severe scabbing/crusting of the skin”.

Q: What about the “efficacy by the end of the study” value [3] of the same compound?
A: The value was “about 90%”.

Q: What about the “Mean skin irritation scores” value [4] of the same compound?
A: Its value is 8.

Q: What about the “skin irritancy / histological dermatitis (in words)” value [4] of the same compound?
A: The value was “severe dermatitis”.

Q: With CCCCCCCCCCC(CO)CCCCCCCC (centres unmarked) [2-octyl-dodecanol] as the compound, how does the “skin irritancy / histological dermatitis (in words)” value [4] read?
A: Its value is “highly irritant”.

Q: For CC1(C)[C@H](C(=O)O[C@H](C#N)c2cccc(Oc3ccccc3)c2)[C@@H]1C=C(Br)Br [deltamethrin], which “efficacy at eight weeks” value [5, 8] is on record?
A: Its value is 8%.

Q: For CC(=O)CC(C)(C)O [Diacetone alcohol], which “Mean skin irritation scores” value [4] is on record?
A: The value was 2.

Q: And the “skin irritancy / histological dermatitis (in words)” value [4]?
A: The value was “non-irritant”.

Q: Which “skin irritancy / histological dermatitis (in words)” value [4] does the source give for propylene glycol dicaprylate dicaprate here?
A: Its value is “highly irritant”.

Q: For spinosad, which “Efficacy (%) at Day 41” value ([6]; spinosad 0.2 mg/kg in OP/IPM/OSU (70:15:15) with 5% oleic acid) is on record?
A: Its value is 37%.

Q: And the “Efficacy (%) at Day 41” value ([6]; spinosad 0.4 mg/kg in OP/IPM/OSU (70:15:15) with 5% oleic acid)?
A: The value was 46%.

Q: What about the “Efficacy (%) at Day 41” value ([6]; spinosad 0.8 mg/kg in OP/IPM/OSU (70:15:15) with 5% oleic acid) of the same compound?
A: The value was 78%.

Q: And the “Efficacy (%) at Day 41” value ([6]; spinosad 1.6 mg/kg in OP/IPM/OSU (70:15:15) with 5% oleic acid)?
A: The value was 37%.

Q: And the “Efficacy (%) at Day 41” value ([6]; spinosad 3.2 mg/kg in OP/IPM/OSU (70:15:15) with 5% oleic acid)?
A: Its value is 93%.

Q: For CCCCCCCC/C=C\CCCCCCCC(=O)OC [methyl oleate], which “skin irritancy / histological dermatitis (in words)” value [4] is on record?
A: The value was “highly irritant”.

Q: For CCCCOCCOCCO [DB, diethylene glycol n-butyl ether], which “Mean skin irritation scores” value [4] is on record?
A: The value was 7.

Q: What about the “skin irritancy / histological dermatitis (in words)” value [4] of the same compound?
A: The value was “highly irritant”.

Q: With isocetyl stearate [ICS] as the compound, how does the “skin irritancy / histological dermatitis (in words)” value [4] read?
A: The value was “mild to moderate dermatitis”.

Q: Which results are given for CC1(C)C(C=C(Cl)Cl)C1C(=O)OC(C#N)c1cccc(Oc2ccccc2)c1 (centres unmarked) [zeta-cypermethrin]?
A: efficacy at eight weeks ([5]; 0.66 mg/kg (zeta-cypermethrin in wool grease)): 0%; efficacy at eight weeks [5, 8]: 43%; lice control compared with the other treatments (in words) ([5]; weekly counts for eight weeks): no significant differences in efficacy at eight weeks; also recorded: better lice control than the commercial pour-ons for the first 5 weeks; lice control, lice with high and moderate resistance to SPs (in words) ([7]; 2 mg/kg zeta-cypermethrin in nonaqueous formulations, commercial deltamethrin, Hartley and Claremont strains): did not give adequate control; lice control, susceptible strain (in words) ([7]; zeta-cypermethrin 2 mg/kg pour-on): did control; lice control, susceptible strain (in words) ([7]; zeta-cypermethrin 2 mg/kg pour-on, listed as Zeta-cypermethrin): eradicated lice; lice control, mildly resistant strain (in words) ([7]; zeta-cypermethrin 2 mg/kg pour-on, sheep infested with mildly resistant strain): excellent control

Q: With COC(C)COC(C)CO (centres unmarked) [DPM, dipropylene glycol methyl ether] as the compound, how does the “Mean skin irritation scores” value [4] read?
A: Its value is 4.

Q: What about the “skin irritancy / histological dermatitis (in words)” value [4] of the same compound?
A: Its value is “mild to moderate dermatitis”.

Q: For CCCCCCCCCCCCCCCCCC(=O)OCCCCCCCC [OS, octyl stearate], which “Physical Properties (in words)” value [1] is on record?
A: Its value is “spreads, lubricant”.

Q: And the “spread of zeta-cypermethrin from the backline (in words)” value [2]?
A: Its value is “modest spread; also recorded: better spread”.

Q: Which results are given for CCCCCCCCCCCCCCCC(=O)OCCCCCCCC [OP, octyl palmitate]?
A: Physical Properties (in words) [1]: spreads, lubricant; Mean skin irritation scores [4]: 3.3; skin irritancy / histological dermatitis (in words) [4]: non-irritant

Q: With CC1(C)C(C=C(Cl)Cl)C1C(=O)OC(C#N)c1cccc(Oc2ccccc2)c1 (centres unmarked) [alphacypermethrin] as the compound, how does the “efficacy at eight weeks” value ([5]; 4 mg/kg (alphacypermethrin in commercial formulation)) read?
A: The value was 9%.
